Results reported in US20250084087A1, “BICYCLIC HETEROCYCLES AS MRGPRX2 ANTAGONISTS” (Incyte Corporation, priority 2023, published 2025).

Assays:
MRGPRX2 [1] = molecular target: T1, MRGPRX2 (Homo sapiens, UniProt Q96LB1); assay: MRGPRX2 β-Arrestin recruitment assay (PathHunter); assay type: cell-based; set-up: host or cells: CHO-K1 (PathHunter); details: PathHunter CHO-K1 MRGPRX2 β-Arrestin cell line; agonist Cortistatin 14 0.25 μM
T1 sequence (Q96LB1 1-330): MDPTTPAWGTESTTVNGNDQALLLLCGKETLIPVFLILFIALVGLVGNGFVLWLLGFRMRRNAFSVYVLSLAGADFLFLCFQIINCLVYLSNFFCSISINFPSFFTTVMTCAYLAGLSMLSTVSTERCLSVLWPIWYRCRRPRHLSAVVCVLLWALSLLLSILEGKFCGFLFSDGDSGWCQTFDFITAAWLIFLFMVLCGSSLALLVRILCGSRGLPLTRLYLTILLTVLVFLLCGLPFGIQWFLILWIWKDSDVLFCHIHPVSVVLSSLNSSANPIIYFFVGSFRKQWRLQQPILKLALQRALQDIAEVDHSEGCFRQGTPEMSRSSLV
Description: Example C: MRGPRX2 P-Arrestin Assay
This assay measures compound inhibition of P-Arrestin recruitment, which is part of the G protein-independent pathway that results from the ligand-activated GPCR phosphorylation by specific GPCR kinases. The PathHunter CHO-K1 MRPGRX2 B-Arrestin Cell line stably expressing ProLink tagged MRGPRX2 and Enzyme Acceptor Tagged B-Arrestin was purchased from Eurofins DiscoverX, (Fremont, CA).
The cells were maintained in culture medium from the Europhins DiscoverX Cell Culture Kit-107 which includes FBS, hygromycin B and G418. For the assay, the cells were harvested and were resuspended with Cell Plating Reagent 2 (Eurofins DiscoverX). Cells were added 10000 cells in 25 μL/well to a 384-well black cell culture plate (Greiner VWR, Radnor, PA) which contained 125 nL/well of compound at a selected serially diluted concentration range or DMSO. The plate was incubated at 37° C. with 5% CO2 for 1 h. 2 μL/well of agonist Cortistatin 14 was diluted in Protein Dilution Buffer, (Eurofins DiscoverX) for a final concentration of 0.25 μM, was added and the plate was incubated at 37° C. with 5% CO2 for 90 min. 14 μL/well of Detection Reagent Mix (PathHunter Detection Kit, Eurofins DiscoverX) was added to the plates and further incubated for 1 h in the dark. Plates were read on the PHERAstar microplate reader (BMG Labtech Cary, NC) measuring luminescence 0.1 to 1 second per well. Data was normalized using DMSO only wells and wells with high concentration of reference antagonist as controls. Compound IC50 curves were globally fitted with 3- or 4-parameter Hill equation in a Genedata Screener (Genedata Basel, Switzerland).

MRGPRX2 [2] = molecular target: T1, MRGPRX2; assay: MRGPRX2 IP1 HTRF assay; assay type: cell-based; set-up: host or cells: CHO-K1; details: CHO-K1 cells stably expressing human MRGPRX2; IP1 accumulation; agonist Cortistatin 14 1 μM
Description: Example B: MRGPRX2 IP1 HTRF Assay
This assay measures compound inhibition of myo-Inositol 1 phosphate (IP1) accumulation in CHO-K1 cells. Chinese hamster ovary (CHO-K1) cells stably expressing human MRGPRX2 were purchased from GenScript (Piscataway, NJ).
For the HTRF IP1 determination, an IP-One GqKit (Perkin Elmer Cisbio, Waltham, MA), which includes all reagents and buffers in this protocol, was used. The cells were maintained in culture medium (Ham's F-12K) containing 10% (v/v) FBS, and 200 μg/mL Zeocin. For the assay, the cells were harvested and resuspended in culture medium with 2% FBS and without Zeocin, then were passed through a 40 μm filter. Cells were added at 20000 cells in a 5 μL/well to a 384-well white small volume cell culture plate (Greiner VWR, Radnor, PA) which contained 50 nL/well of test compound serially diluted at a selected concentration range in DMSO. 5 μL/well of prepared 2× Stimulation Buffer2 was then added to plates and was incubated at 37° C. with 5% CO2 for 1 h. 5 μL/well of agonist Cortistatin 14 (Bio-TechneR&D Systems, Minneapolis, MN) in 1× Stimulation Buffer2, for a 1 μM final concentration, was then added to plates and incubated at 37° C. with 5% CO2 for 1 h. 6 μL/well of 1:20 diluted Detection Reagent Mix (d2 and Cryptate) was added to the plates and incubated for 1 h in the dark. Plates were read on the PHERAstar microplate reader (BMG Labtech Cary, NC) to determine the HTRF ratio of the acceptor and donor emission signals. The IP1 concentrations were calculated from a standard curve following the IP-One GQ kit instructions. Wells with DMSO only and wells with high concentration of reference antagonist were used as controls for normalization. Compound IC50 curves were globally fitted with 3- or 4-parameter Hill equation in a Genedata Screener (Genedata Basel, Switzerland).

| SMILES | IC50 (MRGPRX2 [1]) | IC50 (MRGPRX2 [2]) |
| --- | --- | --- |
| Cn1ccc(N2CC(CNc3cc(C(F)(F)F)nc4cc(C(F)(F)F)nn34)(c3ccc(F)cc3)C2)nc1=O [Example 90, 4-(3-(((2,5-Bis(trifluoromethyl)pyrazolo[1,5-a]pyrimidin-7-yl)amino)methyl)-3-(4-fluorophenyl)azetidin-1-yl)-1-methylpyrimidin-2(1H)-one] | 0.1 to 100 nM | 0.1 to 100 nM |
| [2H]C([2H])([2H])c1cc(NCC2(c3ccc(F)cc3)CN(C(=O)NCC(F)(F)F)C2)n2nc(C(F)(F)F)cc2n1 [Example 109, 3-(4-Fluorophenyl)-3-(((5-(methyl-d3)-2-(trifluoromethyl)pyrazolo[1,5-a]pyrimidin-7-yl)amino)methyl)-N-(2,2,2-trifluoroethyl)azetidine-1-carboxamide] | 0.1 to 100 nM | 0.1 to 100 nM |
| CNC(=O)N1CC(CNc2cc(Cl)cc3nc(C(F)(F)F)cn23)(c2ccc(F)cn2)C1 [Example 25, 3-(((7-Chloro-2-(trifluoromethyl)imidazo[1,2-a]pyridin-5-yl)amino)methyl)-3-(5-fluoropyridin-2-yl)-N-methylazetidine-1-carboxamide] | 0.1 to 100 nM | 0.1 to 100 nM |
| O=C(N[C@H]1CC[C@@H]1O)N1CC(CNc2cc(C(F)(F)F)nc3cc(C(F)(F)F)nn23)(c2ccc(F)cc2)C1 [Example 93, 3-(((2,5-Bis(trifluoromethyl)pyrazolo[1,5-a]pyrimidin-7-yl)amino)methyl)-3-(4-fluorophenyl)-N-((1S,2S)-2-hydroxycyclobutyl)azetidine-1-carboxamide] | 0.1 to 100 nM | 0.1 to 100 nM |
| [2H]C([2H])([2H])c1cc(NCC2(c3ccc(F)cc3)CN(C(=O)NCC(F)F)C2)n2nc(C(F)(F)F)cc2n1 [Example 110, N-(2,2-Difluoroethyl)-3-(4-fluorophenyl)-3-(((5-(methyl-d3)-2-(trifluoromethyl)pyrazolo[1,5-a]pyrimidin-7-yl)amino)methyl)azetidine-1-carboxamide] | 0.1 to 100 nM | 0.1 to 100 nM |
| O=C(N[C@H]1CC[C@H](O)CC1)N1CC(CNc2cc(C3CC3)nc3cc(C(F)(F)F)nn23)(c2ccc(F)cc2)C1 [Example 69, 3-(((5-Cyclopropyl-2-(trifluoromethyl)pyrazolo[1,5-a]pyrimidin-7-yl)amino)methyl)-3-(4-fluorophenyl)-N-((1r,4r)-4-hydroxycyclohexyl)azetidine-1-carboxamide] | 0.1 to 100 nM | 0.1 to 100 nM |
| CNC(=O)N1CC(CNc2cc(C(F)(F)F)nc3cc(C(F)(F)F)nn23)(n2cc(F)cn2)C1 [Example 41, 3-(((2,5-Bis(trifluoromethyl)pyrazolo[1,5-a]pyrimidin-7-yl)amino)methyl)-3-(4-fluoro-1H-pyrazol-1-yl)-N-methylazetidine-1-carboxamide] | 0.1 to 100 nM | 0.1 to 100 nM |
| O=C(N[C@H]1CC[C@H](O)CC1)N1CC(CNc2cc(C(F)(F)F)nc3cc(C(F)F)nn23)(c2ccc(F)cc2)C1 [Example 98, 3-(((2-(Difluoromethyl)-5-(trifluoromethyl)pyrazolo[1,5-a]pyrimidin-7-yl)amino)methyl)-3-(4-fluorophenyl)-N-((1r,4r)-4-hydroxycyclohexyl)azetidine-1-carboxamide] | 0.1 to 100 nM | 0.1 to 100 nM |
| [2H]C([2H])([2H])C([2H])([2H])c1cc(NCC2(c3ccc(F)cc3)CN(C(=O)N[C@@H]3CC[C@@H](O)C3)C2)n2nc(C(F)(F)F)cc2n1 [Example 113, 3-(((5-(Ethyl-d5)-2-(trifluoromethyl)pyrazolo[1,5-a]pyrimidin-7-yl)amino)methyl)-3-(4-fluorophenyl)-N-((1R,3R)-3-hydroxycyclopentyl)azetidine-1-carboxamide] | 0.1 to 100 nM | 0.1 to 100 nM |
| O=C(N[C@@H]1CC[C@@H](O)C1)N1CC(CNc2cc(C(F)(F)F)nc3cc(C(F)(F)F)nn23)(c2ccc(F)cc2)C1 [Example 53, 3-(((2,5-Bis(trifluoromethyl)pyrazolo[1,5-a]pyrimidin-7-yl)amino)methyl)-3-(4-fluorophenyl)-N-((1R,3R)-3-hydroxycyclopentyl)azetidine-1-carboxamide] | 0.1 to 100 nM | 0.1 to 100 nM |
| O=C(N[C@H]1CC[C@H](O)CC1)N1CC(CNc2cc(C(F)(F)F)nc3cc(C(F)(F)F)nn23)(c2ccc(F)cn2)C1 [Example 99, 3-(((2,5-Bis(trifluoromethyl)pyrazolo[1,5-a]pyrimidin-7-yl)amino)methyl)-3-(5-fluoropyridin-2-yl)-N-((1r,4r)-4-hydroxycyclohexyl)azetidine-1-carboxamide] | 0.1 to 100 nM | 0.1 to 100 nM |
| [2H]C([2H])([2H])C([2H])([2H])c1cc(NCC2(c3ccc(F)cc3)CN(C(N)=O)C2)n2nc(C(F)(F)F)cc2n1 [Example 111, 3-(((5-(Ethyl-d5)-2-(trifluoromethyl)pyrazolo[1,5-a]pyrimidin-7-yl)amino)methyl)-3-(4-fluorophenyl)azetidine-1-carboxamide] | 0.1 to 100 nM | 0.1 to 100 nM |
| C[C@]1(O)C[C@H](NC(=O)N2CC(CNc3cc(C(F)(F)F)nc4cc(C(F)(F)F)nn34)(c3ccc(F)cc3)C2)C1 [Example 91, 3-(((2,5-Bis(trifluoromethyl)pyrazolo[1,5-a]pyrimidin-7-yl)amino)methyl)-3-(4-fluorophenyl)-N-((1r,3r)-3-hydroxy-3-methylcyclobutyl)azetidine-1-carboxamide] | 0.1 to 100 nM | 0.1 to 100 nM |
| CC(C)(O)[C@H]1CC[C@H](NC(=O)N2CC(CNc3cc(C(F)(F)F)nc4cc(C(F)(F)F)nn34)(c3ccc(F)cc3)C2)CC1 [Example 55, 3-(((2,5-Bis(trifluoromethyl)pyrazolo[1,5-a]pyrimidin-7-yl)amino)methyl)-3-(4-fluorophenyl)-N-((1r,4r)-4-(2-hydroxypropan-2-yl)cyclohexyl)azetidine-1-carboxamide] | 0.1 to 100 nM | 0.1 to 100 nM |
| CCc1cc(NCC2(c3ccc(F)cc3)CN(C(=O)NCC(F)(F)F)C2)n2nc(C(F)(F)F)cc2n1 [Example 71, 3-(((5-Ethyl-2-(trifluoromethyl)pyrazolo[1,5-a]pyrimidin-7-yl)amino)methyl)-3-(4-fluorophenyl)-N-(2,2,2-trifluoroethyl)azetidine-1-carboxamide] | 0.1 to 100 nM | 0.1 to 100 nM |
| C[C@]1(O)C[C@@H](NC(=O)N2CC(CNc3cc(C(F)(F)F)nc4cc(C(F)(F)F)nn34)(c3ccc(F)cc3)C2)C1 [Example 52, 3-(((2,5-Bis(trifluoromethyl)pyrazolo[1,5-a]pyrimidin-7-yl)amino)methyl)-3-(4-fluorophenyl)-N-((1s,3s)-3-hydroxy-3-methylcyclobutyl)azetidine-1-carboxamide] | 0.1 to 100 nM | 0.1 to 100 nM |
| O=C(N[C@H]1CC[C@](O)(C(F)(F)F)CC1)N1CC(CNc2cc(C(F)(F)F)nc3cc(C(F)(F)F)nn23)(c2ccc(F)cc2)C1 [Example 54, 3-(((2,5-Bis(trifluoromethyl)pyrazolo[1,5-a]pyrimidin-7-yl)amino)methyl)-3-(4-fluorophenyl)-N-((1s,4s)-4-hydroxy-4-(trifluoromethyl)cyclohexyl)azetidine-1-carboxamide] | 0.1 to 100 nM | 0.1 to 100 nM |
